Source: patent US7473760B2, “Cyclic peptide compositions for treatment of sexual dysfunction” (Palatin Technologies, Inc., priority 1999, dated 2009)

Columns and labels:
male Sprague-Dawley rats = experiment: Induction of penile erections in male rats; type: in vivo, rat; conditions: 3 μg/kg intravenous; male rats observed 30 minutes
Experimental: Male Sprague-Dawley rats weighing 200-250 g were kept on a 12 hour on/off light cycle with food and water ad libitum. All behavioral studies were performed between 10 a.m. and 5 p.m. Groups of 6 rats were treated with peptides at a variety of doses, primarily 3 μg/kg, via intravenous administration. Immediately after administration, rats were placed into individual polystyrene cages (27 cm long, 16 cm wide, and 25 cm high) for behavioral observation. […] Using the above procedure, the mean number of penile erections for each rat on intravenous administration of 3 μg/kg was determined as shown on Table 2.

[1] = tested on: men with psychogenic erectile dysfunction; conditions: subcutaneous, 0.025 to 0.157 mg/kg, cited from earlier work
hMC4-R [2] = molecular target: T1, hMC4-R (Homo sapiens, UniProt P32245); experiment: Stimulation of intracellular cAMP production in transfected HEK-293 cells expressing hMC4-R; type: cell-based
T1 construct: expressed in transfected cells; whole cells for cAMP
T1 sequence (P32245 whole entry): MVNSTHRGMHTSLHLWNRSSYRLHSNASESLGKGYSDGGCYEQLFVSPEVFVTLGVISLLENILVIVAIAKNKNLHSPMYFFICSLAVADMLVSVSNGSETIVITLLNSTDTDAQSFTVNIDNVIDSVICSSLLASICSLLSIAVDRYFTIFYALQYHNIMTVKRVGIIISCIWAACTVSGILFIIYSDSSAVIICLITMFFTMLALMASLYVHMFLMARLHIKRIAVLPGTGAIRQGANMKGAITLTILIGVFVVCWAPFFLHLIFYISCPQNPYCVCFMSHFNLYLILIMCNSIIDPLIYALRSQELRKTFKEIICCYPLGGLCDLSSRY
Experimental: Functional assays to determine agonist or antagonist status of a cyclic peptide of the invention may be conducted by any means known in the art. In one method, a cAMP assay is performed. Human MC4-R cells are grown to confluence in 96 well plates (plating approximately 250,000 cells per well). Identical sets of cells in triplicate are treated with 0.2 mM isobutylmethylxanthine (IBMX) and the chosen concentration of the peptide or alternatively the peptide in the presence of 20 nM NDP-MSH. Cells similarly treated but with only 20 nM NDP-MSH serve as positive controls in a volume of 200 μL. A buffer blank, as a negative control, is also included. Incubation is for one hour at 37° C. after which the cells are lysed by the addition of 50 μL of a cell lysis buffer. Total cAMP accumulated in 250 μL of this solution is quantitated using a commercially available low pH cAMP assay kit (Amersham BioSciences) by the procedure specified by the kit supplier. Any peptide showing cAMP accumulation in the same range as or higher than the positive control (buffer blank in the presence of α-MSH) is considered to be an agonist. A peptide showing accumulation in the same range as the negative control (buffer blank in the absence of α-MSH) is ineffective at the test concentration if the result is similar to the positive control where α-MSH is also present in the assay. A peptide showing accumulation in the same range as the negative control is considered to be an antagonist if there is inhibition in cAMP when α-MSH is present in the assay. Similar methods may be employed for MC3-R, using MC3-R cells.

hMC3-R = molecular target: T2, hMC3-R (Homo sapiens, UniProt P41968); experiment: Competitive inhibition binding assay with 125I-NDP-MSH, MC3-R; conditions: 1 μM peptide, HEK 293 human MC3, read-out: Percent Inhibition At 1 μM concentration MC3-R
T2 construct: expressed in transfected cells; host or cells: HEK 293 cells (membranes)
T2 sequence (P41968 whole entry): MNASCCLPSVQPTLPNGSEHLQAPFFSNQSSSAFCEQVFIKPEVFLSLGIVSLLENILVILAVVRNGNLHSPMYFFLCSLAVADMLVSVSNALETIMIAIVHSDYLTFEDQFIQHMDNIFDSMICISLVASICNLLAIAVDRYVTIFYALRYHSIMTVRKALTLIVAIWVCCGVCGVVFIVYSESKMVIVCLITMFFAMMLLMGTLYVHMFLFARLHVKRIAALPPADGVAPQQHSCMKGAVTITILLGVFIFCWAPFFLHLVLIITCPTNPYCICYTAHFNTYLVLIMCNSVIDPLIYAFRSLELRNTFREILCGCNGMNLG
Experimental: Each assay was conducted in triplicate.
(§1) B16-F1 mouse melanoma cells were used as the source of MC1 receptors; HEK 293 cells, transfected with human melanocortin receptor sequences, were used as the source of MC3, MC4 and MC5 receptors.

hMC5-R = molecular target: T3, hMC5-R (Homo sapiens, UniProt P33032); experiment: Competitive inhibition binding assay with 125I-NDP-MSH, MC5-R; conditions: 1 μM peptide, HEK 293 human MC5, read-out: Percent Inhibition At 1 μM concentration MC5-R
T3 construct: expressed in transfected cells; host or cells: HEK 293 cells (membranes)
T3 sequence (P33032 whole entry): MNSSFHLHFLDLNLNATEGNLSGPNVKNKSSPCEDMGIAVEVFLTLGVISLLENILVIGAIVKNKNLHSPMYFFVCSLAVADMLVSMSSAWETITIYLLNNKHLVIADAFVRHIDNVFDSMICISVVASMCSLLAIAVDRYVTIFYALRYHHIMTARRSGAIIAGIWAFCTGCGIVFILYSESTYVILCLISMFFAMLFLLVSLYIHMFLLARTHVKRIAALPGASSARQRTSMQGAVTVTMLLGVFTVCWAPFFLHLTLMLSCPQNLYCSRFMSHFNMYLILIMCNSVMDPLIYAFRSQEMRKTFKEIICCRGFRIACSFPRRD
Experimental: Each assay was conducted in triplicate.
as §1

hMC4-R [3] = molecular target: T1, hMC4-R; experiment: Competitive inhibition binding assay with 125I-NDP-MSH, MC4-R; conditions: 1 μM peptide, HEK 293 human MC4, read-out: Percent Inhibition At 1 μM concentration MC4-R
Experimental: Each assay was conducted in triplicate.
as §1

[4] = molecular target: MC1-R (B16-F1 mouse melanoma cells) (Mus musculus, UniProt Q01727); experiment: Competitive inhibition binding assay with 125I-NDP-MSH, MC1-R; conditions: 1 μM peptide, B16-F1 mouse melanoma membranes, read-out: Percent Inhibition At 1 μM concentration MC1-R
Chain of MC1-R (B16-F1 mouse melanoma cells) (Q01727 whole entry): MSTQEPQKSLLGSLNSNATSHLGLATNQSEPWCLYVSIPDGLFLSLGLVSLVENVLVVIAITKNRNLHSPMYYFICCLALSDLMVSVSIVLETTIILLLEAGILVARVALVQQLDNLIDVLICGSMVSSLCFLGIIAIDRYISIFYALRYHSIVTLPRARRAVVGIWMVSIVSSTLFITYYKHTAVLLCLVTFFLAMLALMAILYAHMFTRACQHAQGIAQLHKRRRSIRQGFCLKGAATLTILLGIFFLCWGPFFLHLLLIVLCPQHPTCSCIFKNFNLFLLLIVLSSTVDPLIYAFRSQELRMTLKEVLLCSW
Experimental: Each assay was conducted in triplicate.
as §1

Row | Compound | Mean PE/Rat (mean number of penile erections for each rat) (male Sprague-Dawley rats) | also measured
1 | Ahx-cyclo(-Asp-His-D-Phe-Arg-Trp-Lys)-OH | 0.33 | –
2 | Ac-Nle-cyclo(-Asp-Tyr-D-Phe-Arg-Trp-Lys)-OH | 0.67 | –
3 | Ac-Nle-cyclo(-Asp-Phe-D-Phe-Arg-Trp-Lys)-OH | 0.33 | –
4 | Ac-Nle-cyclo(-Asp-Trp-D-Phe-Arg-Trp-Lys)-OH | 0.5 | –
5 | Ac-Nle-cyclo(-Asp-His-D-Phe(4-Cl)-Arg-Trp-Lys)-OH | 0.33 | –
6 | Ac-Nle-cyclo(-Asp-His-D-Phe-Arg-Nal 1-Lys)-OH | 0.33 | –
7 | Melanotan-II | – | transient side effects [1]: nausea, stretching and yawning, and decreased appetite; mean duration of tip rigidity greater than 80% ([1]; placebo 3.0 minutes, p=0.0045): 38 min
8 | cyclo(-Succ-His-D-Phe-Arg-Trp-Lys)-OH (FRWK; cyclic succinyl, His, D-residue prefix; printed: Phe-Arg-Trp-Lys) | – | Functional Activity at MC4-R (hMC4-R [2]): Agonist
9 | Ac-Nle-cyclo(-Asp-D-His-D-Phe-Arg-Trp-Lys)-OH | 0.33 | –
10 | CCCC[C@H](NC(C)=O)C(=O)N[C@H]1CC(=O)NCCCC[C@@H](C(=O)O)NC(=O)[C@H](Cc2c[nH]c3ccccc23)NC(=O)[C@H](CCCCN)NC(=O)[C@@H](Cc2ccccc2)NC(=O)[C@H](Cc2c[nH]cn2)NC1=O [Ac-Nle-cyclo(-Asp-His-D-Phe-Lys-Trp-Lys)-OH] | 1.33 | Functional Activity at MC4-R (hMC4-R [2]): Agonist; inhibition at 1 µM (hMC3-R): 8%; inhibition at 1 µM (hMC5-R): 17%; inhibition at 1 µM (hMC4-R [3]): 46%; inhibition at 1 µM [4]: 86%
11 | Ac-Nle-cyclo(-Asp-His-Phe-Arg-Trp-Lys)-OH | – | Functional Activity at MC4-R (hMC4-R [2]): Inactive
12 | Ac-Nle-cyclo(-Asp-His-D-Phe-Arg-D-Trp-Lys)-OH | 0.83 | –
